Holding throughout (format): cell-based
One data set deals with 293T cells. Kind of data set: Toxicity of FSY to 293T cells.
The next data set has as its system E. coli. Kind of data set: E. coli growth in presence of FSY. The conditions noted are these: 1 mM FSY in growth media.
For a further data set, the system named is HeLa cells. Nature of the data set: Toxicity and cell morphology of FSY in HeLa cells.
Data set [1] concerns HeLa-EGFP-182TAG reporter cells. Kind of data set: FACS analysis of Uaa incorporation into HeLa-EGFP-182TAG reporter cells. The conditions noted are these: flow cytometry; positive control AzF with plasmid pIre-Azi3. The procedure: FSY incorporation into proteins in mammalian cells was tested. HeLa-EGFP-182TAG reporter cells were transfected with plasmid pMP-FSYRS-3×tRNA, which expresses FSYRS and tRNA^Pyl genes. Wang et al, Nat. Neurosci., 10:1063-1072 (2007). Suppression of the 182TAG codon would produce full-length EGFP rendering cells fluorescent. After transfection, cells were incubated with FSY of various concentrations at 37° C. for 24 or 48 h followed by flow cytometry. Strong EGFP fluorescence was measured from cells only when FSY was added. The fluorescence intensity increased with FSY concentration and incubation time. As a positive control, p-azido-L-phenylalanine (AzF) was incorporated into reporter cells in parallel using plasmid pIre-Azi3, which is the most efficient Uaa incorporation system in mammalian cells in our hands. […] No fluorescence signal was detected when FSY was not added.
FACS analysis of Uaa incorporation into HeLa-GFP-182TAG reporter cells: One day before transfection, 4.5×10^4 HeLa-EGFP-182TAG reporter cells (Wang et al, Nat. Neurosci., 10:1063-1072 (2007)) were seeded in a Greiner bio-one 24 well-cell culture dish containing 500 μL of DMEM media with 10% FBS, and incubated at 37° C. in a CO2 incubator. […] The cells were resuspended in 300 μL of FACS buffer (1×PBS, 2% FBS, 1 mM EDTA, 0.1% sodium azide, 0.28 μM DAPI) and analyzed by BD LSRFortessa™ cell analyzer.
On the technique in general: A flow cytometer gives signals particle by particle.

Consider `N[C@@H](Cc1ccc(OS(=O)(=O)F)cc1)C(=O)O` [FSY, fluorosulfate-L-tyrosine], for which, in the data set on 293T cells, the “toxicity to 293T cells” value was “no obvious toxicity”. Also, the “cytotoxicity (E. coli growth)” value in the data set on E. coli was “no obvious cytotoxicity”. In addition, the “toxicity to HeLa cells” value in the data set with HeLa cells (FSY incubation 24 or 48 h) was “no obvious toxicity”. Also, the “cell morphology (fluorescence confocal microscopy)” value in the data set with HeLa cells (HeLa-EGFP-182TAG reporter cells in the presence of FSY) is on record as “cell morphology remained normal”. Further, in data set [1], the “Uaa incorporation (EGFP fluorescence) relative to the AzF level” value is listed as 76%.

The values above are taken from patent publication US20220371986A1, “METHOD TO GENERATE BIOCHEMICALLY REACTIVE AMINO ACIDS” (The Regents of the University of California, priority 2019, published 2022).
